Common to all, as to test: inhibition of tumour cell growth, NCI panel, 48 h
The subject of assay [1] is 786-0 renal.
In assay [2] the test system is EKVX NSCLC.
The test system of assay [3] is MDA-N.
Assay [4] relates to BT-549 breast.
Assay [5] concerns SF-295 CNS.
The test system of assay [6] is T-47D breast.
The subject of assay [7] is DLD-1 colon.
The subject of assay [8] is DMS 114 small cell lung.
Assay [9] relates to DMS 273 small cell lung.
Assay [10] deals with HOP-18 NSCLC.
In assay [11] the test system is KM20L2 colon.
The test system of assay [12] is M19-MEL melanoma.
Assay [13] concerns SNB-78 CNS.
Assay [14] has as its system XF 498 CNS.
Assay [15] concerns RXF-631 renal.

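Compound exposure: 48 hours, 5 concentrations, 96-well plates. GI50 is the concentration that inhibits growth by half. TGI is the concentration that stops growth completely.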

Consider `C[n+]1c(-c2ccc(/C=N\Nc3ccnc(N/N=C/c4ccc(-c5cn6ccsc6[n+]5C)cc4)n3)cc2)cn2ccsc21`, for which the figures for the TGI in assay [1], in assay [2] and in assay [3] were 32.8 µM, 50 µM and 26.7 µM, respectively.
For `O=Nn1c2ccccc2c2ccccc21`, the TGI in assay [1], in assay [4], in assay [2], in assay [5] and in [6] was greater than 100 µM each time.
With `CC(C)=NC(C(=O)O)C(C)(C)S` (centres undefined), the TGI in [1], in assay [4], in assay [2], in [3], in assay [5] and in assay [6] was greater than 100 µM each time.
With `CCOC(=O)CCCc1cc(=O)c2c(C)c3[nH]c4ccc(Cl)cc4c3c(C)c2[nH]1`, the TGI is 38.2 µM in assay [1]; 41.8 µM in assay [4]; greater than 100 µM in assay [2]; greater than 100 µM in [3]; 67 µM in assay [5].
Regarding `COc1ncnc2c(Cl)c(C(O)c3ccccc3)c(Cl)cc12` (centres undefined), the TGI was 66.1 µM in assay [4]; greater than 100 µM in assay [2]; 18.7 µM in assay [3]; 68.2 µM in assay [5]; greater than 100 µM in [6].
Take `OCC1NC(CO)C(O)C1O` (centres undefined): the TGI in [4], in [3], in assay [5] and in [6] was greater than 100 µM in each case.
Turning to `CC=C/C=C/[C@@H]1O[C@](O)([C@H](CC)C(=O)NC/C=C/C=C(\C)[C@@H](OC)[C@@H](C)[C@@H]2O[C@H](/C=C/C=C/C=C(\C)C(=O)c3c(O)cc[nH]c3=O)[C@H](O)[C@@H]2O)[C@H](O)[C@H](O)C1(C)C`, the TGI in assay [2] and in assay [5] was greater than 100 µM throughout.
With `COc1ccc(CCn2ccc(C)n2)c(OC)c1`, the TGI in [4], in assay [2], in assay [3], in assay [5] and in assay [6] was greater than 100 µM each time.
As for `CC(C)N(CCNc1nc(C(Cl)(Cl)Cl)nc2cc(Cl)ccc12)C(C)C`, the GI50 in assay [2] was 1570 nM; in assay [5], 1730 nM; in [6], 2240 nM. Also, the results for the TGI in assay [2], in [5] and in [6] were 4.32 µM, 3.66 µM and 5.08 µM, respectively.
Turning to `Nc1nc(N)c(N=Nc2ccccc2)c(=O)[nH]1`, the TGI in assay [1] was greater than 100 µM; in assay [7], greater than 100 µM; in assay [8], 71.2 µM; in [9], greater than 100 µM; in assay [10], greater than 100 µM; in assay [11] it was greater than 100 µM. Besides, the TGI was greater than 100 µM in assay [12], greater than 100 µM in [5], 71.4 µM in assay [13] and greater than 100 µM in assay [14].
In the case of `O=S1(=O)C[C@H](NCc2ccccc2)[C@H](NCc2ccccc2)C1`, the TGI in assay [4] was greater than 100 µM; in assay [2] it was greater than 100 µM; in assay [3], greater than 100 µM; in [5], greater than 100 µM; in assay [6] it was 86.4 µM.
`CCOP(=O)(OCC)C(Cc1c[nH]c2ccccc12)C(=O)O` (centres undefined): the TGI in assay [3], in assay [5] and in [6] was greater than 100 µM each time.
Consider `O=C(Nc1ccc(C(F)(F)F)cc1[N+](=O)[O-])C(=O)Nn1c(=S)[nH]c2ccccc2c1=O`, for which the TGI in [7], in assay [8], in [9], in [2], in assay [10] and in assay [11] was greater than 100 µM in each case. The TGI in [12], in assay [15], in assay [5], in assay [13] and in assay [14] was greater than 100 µM throughout.
Turning to `Cc1ccc(S(=O)(=O)NCCCSCCN)cc1`, the TGI in assay [3], in [5] and in [6] was greater than 100 µM in each case.
Regarding `COc1ccc(/C=C/c2cc(O)cc(OC3OC(CO)C(O)C(O)C3O)c2)cc1O` (centres undefined), the TGI in assay [1], in [4], in assay [2], in [3], in assay [5] and in assay [6] was greater than 100 µM in each case.

For the origin of these results see PubChem BioAssay (NCI).
